{"source": "patent US12583849B2", "about": "“KCNT1 inhibitors and methods of use” (Praxis Precision Medicines, Inc., priority 2020, dated 2026)", "data": [{"target": "T1, KCNT1 (KNa1.1, Slack) (Homo sapiens, UniProt Q5JUK3)", "T1 construct": "expressed in transfected cells; host or cells: HEK-TREX (tetracycline-inducible cell line)", "T1 sequence (Q5JUK3 1-1230)": "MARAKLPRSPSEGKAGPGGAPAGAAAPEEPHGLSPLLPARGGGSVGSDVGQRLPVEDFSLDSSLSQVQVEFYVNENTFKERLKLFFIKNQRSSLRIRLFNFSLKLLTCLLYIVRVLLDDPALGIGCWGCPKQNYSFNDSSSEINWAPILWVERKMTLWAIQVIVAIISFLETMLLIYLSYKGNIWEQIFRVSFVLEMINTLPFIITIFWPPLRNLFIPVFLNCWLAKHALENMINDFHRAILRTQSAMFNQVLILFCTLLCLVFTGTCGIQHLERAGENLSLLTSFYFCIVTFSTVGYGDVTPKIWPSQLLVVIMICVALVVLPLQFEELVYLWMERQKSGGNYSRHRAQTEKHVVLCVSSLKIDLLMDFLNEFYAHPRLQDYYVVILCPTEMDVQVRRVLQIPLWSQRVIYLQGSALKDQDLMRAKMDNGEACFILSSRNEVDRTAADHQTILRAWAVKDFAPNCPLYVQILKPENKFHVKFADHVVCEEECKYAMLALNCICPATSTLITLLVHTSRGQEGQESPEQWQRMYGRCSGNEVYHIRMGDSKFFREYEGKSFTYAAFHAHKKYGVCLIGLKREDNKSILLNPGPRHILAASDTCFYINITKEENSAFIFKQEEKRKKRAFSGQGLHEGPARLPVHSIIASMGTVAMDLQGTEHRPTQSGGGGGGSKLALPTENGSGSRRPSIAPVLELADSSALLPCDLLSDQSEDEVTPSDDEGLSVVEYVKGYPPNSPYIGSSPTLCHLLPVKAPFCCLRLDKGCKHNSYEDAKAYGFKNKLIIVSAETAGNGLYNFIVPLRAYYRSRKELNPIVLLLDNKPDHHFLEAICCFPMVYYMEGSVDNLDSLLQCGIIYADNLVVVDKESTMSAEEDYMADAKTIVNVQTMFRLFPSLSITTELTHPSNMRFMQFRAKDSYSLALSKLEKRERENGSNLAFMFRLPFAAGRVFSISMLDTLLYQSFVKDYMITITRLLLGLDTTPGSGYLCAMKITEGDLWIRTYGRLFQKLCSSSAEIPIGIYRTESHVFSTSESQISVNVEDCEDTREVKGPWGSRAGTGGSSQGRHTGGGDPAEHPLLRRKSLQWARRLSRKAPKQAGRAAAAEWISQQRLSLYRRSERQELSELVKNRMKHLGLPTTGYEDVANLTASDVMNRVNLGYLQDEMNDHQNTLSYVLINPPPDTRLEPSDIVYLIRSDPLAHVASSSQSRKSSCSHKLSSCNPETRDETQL", "experiment": "KCNT1-WT-Basal Patch Clamp Assay", "type": "cell-based", "conditions": "tetracycline inducible cell line (HEK-TREX); SyncroPatch 384PE automated patch clamp, perforated patch mode, room temperature, step from -80 mV to 0 mV", "protocol": "KCNT1-WT-Basal—Patch Clamp Assay\nInhibition of KCNT1 (KNa1.1, Slack) was evaluated using a tetracycline inducible cell line (HEK-TREX). Currents were recorded using the SyncroPatch 384PE automated, patch clamp system. Pulse generation and data collection were performed with PatchController384 V1.3.0 and DataController384 V1.2.1 (Nanion Technologies). The access resistance and apparent membrane capacitance were estimated using built-in protocols. Current were recorded in perforated patch mode (10 μM escin) from a population of cells. The cells were lifted, triturated, and resuspended at 800,000 cells/ml. The cells were allowed to recover in the cell hotel prior to experimentation. Currents were recorded at room temperature. The external solution contained the following (in mM): NaCl 105, NMDG 40, KCl 4, MgCl2 1, CaCl2 5 and HEPES 10 (pH=7.4, Osmolarity ˜300 mOsm). The extracellular solution was used as the wash, reference and compound delivery solution. The internal solution contained the following (in mM): NaCl 70, KF 70, KCl 10, EGTA 5, HEPES 5 and Escin 0.01 (pH=7.2, Osmolarity ˜295 mOsm). Escin is made at a 5 mM stock in water, aliquoted, and stored at −20° C. The compound plate was created at 2× concentrated in the extracellular solution. The compound was diluted to 1:2 when added to the recording well. The amount of DMSO in the extracellular solution was held constant at the level used for the highest tested concentration. A holding potential of −80 mV with a 100 ms step to 0 mV was used. Mean current was measured during the step to 0 mV. […] The average mean current from 3 sweeps was calculated and the % inhibition of each compound was calculated. The % Inhibition as a function of the compound concentration was fit with a Hill equation to derive IC50, slope, min and max parameters. If KCNT1 inhibition was less than 50% at the highest tested concentration or if an IC50 could not be calculated, then a percent inhibition was reported in place of the IC50.\nIn this table, “A” indicates IC50 of less than or equal to 1 μM; “B” indicates inhibition of between 1 μM to 20 μM; and “C” indicates inhibition of greater than or equal to 20 μM.", "units": {"IC50": "nM"}, "values": [{"smiles": "Cc1nc(C)c(C(=O)N[C@H](C)c2nc(-c3cccc(F)c3)no2)s1", "note": "[Compound I-37, (R)—N-(1-(3-(3-fluorophenyl)-1,2,4-oxadiazol-5-yl)ethyl)-2,4-dimethylthiazole-5-carboxamide]", "IC50": "1000 to 20000"}, {"smiles": "C[C@H](NC(=O)c1ccc(S(=O)(=O)C2CC2)s1)c1nc(-c2ccnc(C3CC3)c2)no1", "note": "[Compound I-97, (S)—N-(1-(3-(2-cyclopropylpyridin-4-yl)-1,2,4-oxadiazol-5-yl)ethyl)-5-(cyclopropylsulfonyl)thiophene-2-carboxamide]", "IC50": "≤ 1000"}, {"smiles": "CC(NC(=O)c1cn2ccccc2n1)c1nc(-c2cccc(F)c2)no1", "note": "(centres unmarked) [Compound I-50, N-[1-[3-(3-fluorophenyl)-1,2,4-oxadiazol-5-yl]ethyl]imidazo[1,2-a]pyridine-2-carboxamide]", "IC50": "≥ 20000"}, {"smiles": "C[C@H](NC(=O)c1ccc(Cl)cc1Cl)c1nc(-c2ccnc(C3CC3)c2)no1", "note": "[Compound I-94, (S)-2,4-dichloro-N-(1-(3-(2-cyclopropylpyridin-4-yl)-1,2,4-oxadiazol-5-yl)ethyl)benzamide]", "IC50": "≤ 1000"}, {"smiles": "C[C@H](NC(=O)c1c[nH]c(C(F)(F)F)n1)c1nc(-c2ccnc(C(F)(F)F)c2)no1", "note": "[Compound I-4, (S)-2-(trifluoromethyl)-N-(1-(3-(2-(trifluoromethyl)pyridin-4-yl)-1,2,4-oxadiazol-5-yl)ethyl)-1H-imidazole-4-carboxamide]", "IC50": "≥ 20000"}, {"smiles": "C[C@H](NC(=O)C1(C)CC1)c1nc(-c2ccnc(C(F)(F)F)c2)no1", "note": "[Compound I-33, (S)-1-methyl-N-(1-(3-(2-(trifluoromethyl)pyridin-4-yl)-1,2,4-oxadiazol-5-yl)ethyl)cyclopropane-1-carboxamide]", "IC50": "1000 to 20000"}, {"smiles": "CC(C)Oc1cc(-c2noc([C@H](C)NC(=O)C3CCCC3)n2)ccn1", "note": "[Compound I-46, (S)—N-(1-(3-(2-isopropoxypyridin-4-yl)-1,2,4-oxadiazol-5-yl)ethyl)cyclopentane-carboxamide]", "IC50": "≤ 1000"}, {"smiles": "CC(C)Oc1cc(-c2noc([C@H](C)NC(=O)NC(C)(C)C)n2)ccn1", "note": "[II-1]", "IC50": "≤ 1000"}, {"smiles": "C[C@H](NC(=O)[C@@H](C)c1ccccc1)c1nc(-c2ccnc(C3CC3)c2)no1", "note": "[Compound I-64, (2S)—N-[(1S)-1-[3-(2-cyclopropyl-4-pyridyl)-1,2,4-oxadiazol-5-yl]ethyl]-2-phenyl-propanamide]", "IC50": "≤ 1000"}, {"smiles": "C[C@H](NC(=O)C1CCCCC1)c1nc(-c2ccnc(C(F)(F)F)c2)no1", "note": "[Compound I-9]", "IC50": "≤ 1000"}, {"smiles": "C[C@H](NC(=O)C1CCC(C)(C)CC1)c1nc(-c2ccnc(C(F)(F)F)c2)no1", "note": "[Compound I-67, (S)-4,4-dimethyl-N-(1-(3-(2-(trifluoromethyl)pyridin-4-yl)-1,2,4-oxadiazol-5-yl)ethyl)cyclohexane-1-carboxamide]", "IC50": "≤ 1000"}, {"smiles": "C[C@H](NC(=O)CN(C)c1ccccc1)c1nc(-c2ccnc(C(F)(F)F)c2)no1", "note": "[III-4, (S)-2-(methyl(phenyl)amino)-N-(1-(3-(2-(trifluoromethyl)pyridin-4-yl)-1,2,4-oxadiazol-5-yl)ethyl)acetamide]", "IC50": "≤ 1000"}, {"smiles": "C[C@H](NC(=O)[C@H]1CC[C@@H](C)CC1)c1nc(-c2ccnc(C3CC3)c2)no1", "note": "[Compound I-84, (1S,4R)—N—((S)-1-(3-(2-cyclopropylpyridin-4-yl)-1,2,4-oxadiazol-5-yl)ethyl)-4-methylcyclohexane-1-carboxamide]", "IC50": "≤ 1000"}, {"smiles": "CC(=O)N1CCCCC1C(=O)N[C@@H](C)c1nc(-c2ccnc(C(F)(F)F)c2)no1", "note": "(mixture of isomers) [Compound I-86, 1-acetyl-N-[(1S)-1-[3-[2-(trifluoromethyl)-4-pyridyl]-1,2,4-oxadiazol-5-yl]ethyl]piperidine-2-carboxamide]", "IC50": "≥ 20000"}, {"smiles": "C[C@H](NC(=O)NC(C)(C)C)c1nc(-c2ccnc(C3CC3)c2)no1", "note": "[II-7]", "IC50": "≤ 1000"}, {"smiles": "C[C@H](NC(=O)c1cccnn1)c1nc(-c2ccnc(C(F)(F)F)c2)no1", "note": "[Compound I-24, (S)—N-(1-(3-(2-(trifluoromethyl)pyridin-4-yl)-1,2,4-oxadiazol-5-yl)ethyl)pyridazine-3-carboxamide]", "IC50": "≥ 20000"}, {"smiles": "Cc1nc(C(F)(F)F)ccc1C(=O)N[C@@H](C)c1nc(-c2ccnc(C3CC3)c2)no1", "note": "[Compound I-53, (S)—N-(1-(3-(2-cyclopropylpyridin-4-yl)-1,2,4-oxadiazol-5-yl)ethyl)-2-methyl-6-(trifluoromethyl)nicotinamide]", "IC50": "≤ 1000"}, {"smiles": "C[C@H](NC(=O)C1CCN(C)CC1)c1nc(-c2ccnc(C(F)(F)F)c2)no1", "note": "[Compound I-65, (S)-1-methyl-N-(1-(3-(2-(trifluoromethyl)pyridin-4-yl)-1,2,4-oxadiazol-5-yl)ethyl)piperidine-4-carboxamide]", "IC50": "≥ 20000"}, {"smiles": "C[C@H](NC(=O)c1ccccn1)c1nc(-c2ccnc(C(F)(F)F)c2)no1", "note": "[Compound I-7, (S)—N-(1-(3-(2-(trifluoromethyl)pyridin-4-yl)-1,2,4-oxadiazol-5-yl)ethyl)picolinamide]", "IC50": "≥ 20000"}, {"smiles": "C[C@H](NC(=O)C1CC2(CCC2)C1)c1nc(-c2ccnc(C(F)(F)F)c2)no1", "note": "[Compound I-76, N-[(1S)-1-[3-[2-(trifluoromethyl)-4-pyridyl]-1,2,4-oxadiazol-5-yl]ethyl]spiro[3.3]heptane-2-carboxamide]", "IC50": "≤ 1000"}, {"smiles": "C[C@H](NC(=O)c1ccncc1)c1nc(-c2ccnc(C(F)(F)F)c2)no1", "note": "[Compound I-6, (S)—N-(1-(3-(2-(trifluoromethyl)pyridin-4-yl)-1,2,4-oxadiazol-5-yl)ethyl)isonicotinamide]", "IC50": "≥ 20000"}, {"smiles": "C[C@H](NC(=O)c1cccc(C(N)=O)c1)c1nc(-c2ccnc(C3CC3)c2)no1", "note": "[Compound I-91, (S)—N-(1-(3-(2-cyclopropylpyridin-4-yl)-1,2,4-oxadiazol-5-yl)ethyl) isophthalamide]", "IC50": "1000 to 20000"}, {"smiles": "C[C@H](NC(=O)CC(F)(F)F)c1nc(-c2ccnc(C(F)(F)F)c2)no1", "note": "[III-2, (S)-3,3,3-trifluoro-N-(1-(3-(2-(trifluoromethyl)pyridin-4-yl)-1,2,4-oxadiazol-5-yl)ethyl)propenamide]", "IC50": "1000 to 20000"}, {"smiles": "C[C@H](NC(=O)CN1CCCCC1)c1nc(-c2ccnc(C(F)(F)F)c2)no1", "note": "[Compound I-35, (S)-2-(piperidin-1-yl)-N-(1-(3-(2-(trifluoromethyl)pyridin-4-yl)-1,2,4-oxadiazol-5-yl)ethyl)acetamide]", "IC50": "≥ 20000"}, {"smiles": "C[C@H](NC(=O)c1cccnc1)c1nc(-c2ccnc(C(F)(F)F)c2)no1", "note": "[Compound I-11, (S)—N-(1-(3-(2-(trifluoromethyl)pyridin-4-yl)-1,2,4-oxadiazol-5-yl)ethyl)nicotinamide]", "IC50": "1000 to 20000"}, {"smiles": "Cc1ccc(C(=O)N[C@@H](C)c2nc(-c3ccnc(C4CC4)c3)no2)cc1", "note": "[Compound I-87, (S)—N-(1-(3-(2-cyclopropylpyridin-4-yl)-1,2,4-oxadiazol-5-yl)ethyl)-4-methylbenzamide]", "IC50": "≤ 1000"}]}]}
